Test results published in paper PMC8767159, “Multiparameter Optimization of Trypanocidal Cruzain Inhibitors With In Vivo Activity and Favorable Pharmacokinetics” (Frontiers in Pharmacology, 2022).
Read-outs that look alike come from different tables or passages of the source.

How the values were obtained:
cruzain = target: T1, cruzain (Trypanosoma cruzi, UniProt P25779); experiment: Cruzain enzyme inhibition assay (cleavage of fluorogenic substrate Z-FR-AMC); format: biochemical; conditions: for IC50: 1.5 nM cruzain, 5.0 µM Z-FR-AMC, mean ± SD of 2–3 assays, read-out: IC50 (µM) against cruzain; for inhibition at 100 µM: compound 100 µM, mean of three measures
T1 construct: made in house; host or cells: Escherichia coli (strain M15)
Experimental: Pro-cruzain truncated at the C-terminus was expressed and purified using a previously described protocol ([Ferreira et al., 2019]). Escherichia coli (strain M15) cultures were grown overnight at 37°C and 200 rpm in Luria Bertani (LB) medium supplemented with ampicillin (100 μg/ml) and kanamycin (50 μg/ml). Next, the cultures were diluted 10-fold in fresh LB medium supplemented with 0.5 M NaCl, 0.2% glucose, 1 mM betaine, 0.5 M sorbitol, 100 μg/ml ampicillin, and 50 μg/ml kanamycin and incubated at 37°C and 200 rpm. At an optical density (OD600) of 0.9, the cultures were incubated at 47°C for 20 min to promote the expression of chaperones. Then, the expression of cruzain was induced by adding isopropyl β-D-thiogalactopyranoside (IPTG) to a final concentration of 0.2 mM, which was followed by overnight incubation of the cultures at 20°C and 200 rpm. Next, the cultures were centrifuged (5,000 rpm, 30 min, 4°C), and the cells were suspended in 50 ml of lysis buffer (300 mM NaCl, 50 mM Tris-HCl, and 1.6 mg/ml lysozyme, pH 8.0) per liter of culture and lysed by sonication (12 cycles of 30 s). This cell lysate was centrifuged (9,000 rpm, 30 min, 4°C), and the supernatant was collected. Cruzain was precipitated by incubation with 35% ammonium sulfate (2 h), and this suspension was centrifuged at 9,000 rpm for 30 min at 4°C. The precipitated cruzain was resuspended in lysis buffer, and the sample was dialyzed to eliminate ammonium sulfate. The soluble fraction of the dialysate was loaded on a Ni−NTA column (Qiagen, Hilden, Germany), and the contaminants were washed using washing buffer (300 mM NaCl, 50 mM Tris-HCl, and 10 mM imidazole, pH 8.0). Cruzain was eluted by applying an increasing imidazole gradient: 25, 50, 75, 100, and 250 mM. The fractions containing cruzain were pooled together and dialyzed against 1.5 L of 0.1 M acetate buffer, pH 5.5, and then concentrated to 0.5 mg/ml. Pro-cruzain was activated by incubation with activation buffer (100 mM sodium acetate, pH 5.5, 10 mM EDTA, 5 mM DTT, and 1 M NaCl) at 37°C. […] After activation, the enzyme was diluted 20-fold in binding buffer (20 mM sodium phosphate and 150 mM NaCl, pH 7.2) and added to thiopropyl Sepharose 6B resin (GE Healthcare Life Sciences, Pittsburgh, PA). After overnight incubation at 4°C, the resin was loaded on a column, and cruzain was eluted with binding buffer supplemented with 20 mM DTT. Fractions containing cruzain were pooled together and stored in 0.1 M sodium acetate, pH 5.5, at −80°C.
Cruzain activity was followed by monitoring the cleavage of the fluorogenic substrate Z-Phe-Arg-aminomethyl coumarin (Z-FR-AMC), as previously described ([Ferreira et al., 2019]), using 96-well flat-bottom black plates and wavelengths of 355 nm for excitation and 460 nm for emission. All cruzain assays were performed in 0.1 M sodium acetate buffer with 5 mM dithiothreitol (DTT) and 0.01% Triton X-100, pH 5.5. […] The cleavage of the substrate was monitored for 5 min, and the activity was calculated based on the initial reaction rates compared with the rate of a DMSO control at 30°C. The IC50 values were independently calculated by considering the rate measurements for at least six inhibitor concentrations, each evaluated in triplicate. To determine the mechanism of cruzain inhibition, eight concentrations of the substrate Z-FR-AMC and four concentrations of the inhibitor were employed, each in triplicate. Kinetic parameters were determined using the SigmaPlot (Systat Software Inc., Erkrath, Germany) enzyme kinetics module. Compounds were tested in two or three independent experiments. All enzyme assays were performed using varying Triton X-100 concentrations (0, 0.01, and 0.1%) ([Ferreira et al., 2009]). Compound concentrations were 100 μM in the single-dose percentage inhibition assays.

[1] = In vivo pharmacokinetics in male CD1 mice; parameters: species or system mouse; conditions: for bioavailability / C0 / AUC / half-life / Vd / Cmax / Tmax: plasma; for bioavailability: oral bioavailability; for clearance: plasma clearance, read-out: CLp (L/h/kg) IV (converted)
Experimental: The in vivo pharmacokinetic profiles of the compounds were determined using male CD1 mice weighing […] ([Davies and Morris, 1993]; [Liu and Jia, 2007]). The compounds were administered in a single dose orally (0.5 mg/kg) and intravenously (0.5 mg/kg). Stock solutions of the compounds in DMSO were diluted in Tween 80, PEG-400, and D5W (5% dextrose in water) at a ratio of 2:5:20:73 (v/v). The injection volume was 10 ml/kg. The remaining plasma concentration was monitored over time by LC-MS/MS by collecting blood samples (40 μl) at 10, 25, and 50 min and 1, 3, 6, 9, 12, and 24 h after administration of the compound.
For the biotransformation experiments and analysis of metabolites in microsomes, an Ultra-High-Pressure Liquid Chromatography instrument (UHPLC, Thermo Accela, Waltham, MA) ([Spaggiari et al., 2014]) connected to an automatic sample injector and a 1250 series pump was used. The UHPLC system was connected to a Thermo Fisher (Waltham, MA) LTQ Orbitrap mass spectrometer. For all other analyses, an AB Sciex Triple Quad 5500 coupled to a UHPLC equipped with a UV 1290 diode detector (Agilent Technologies, Santa Clara, CA) and a CTC PAL self-collecting system (LEAP Technologies, Carrboro, NC) was used. Q1 MS positive ion mode (300–500 Da) was used to detect the ions of the parent compounds. The UV detector was operated in spectral mode (250–280 nm). A Hypersil Gold C18 (2.1 mm × 100 mm, 1.9 µm, Thermo Fisher) HPLC column was used. The mobile phases were solvent A (0.1% formic acid in water) and solvent B (0.1% formic acid in ACN). The flow was adjusted to 0.55 ml/min, and the injection volume was adjusted to […]. The gradient started with 1% solvent B for 0.4 min, reached 40% (solvent B) in 2.3 min and 95% (solvent B) in 0.67 min, was maintained for 0.5 min, and returned to the initial condition of 1%. This condition was maintained for 1 min before injection of the next sample. The peak area ratio (peak area of the test compounds/peak area of the control compounds) was converted to the percentage of remaining compound, with the 0 min time point ratio set to 100%. T½ and CLint were calculated from the percentage of remaining compound versus the incubation time. From the resulting function, the slope (k) was determined. The equations T1/2 (min) = ln(2)/k and CLint in vitro (μL/min/mg) = k*1000/0.25 were used to determine T½ and CLint.

[2] = Table 6, plasma clearance corrected for the fraction unbound, IV
[3] = mouse, 0.5 mg/kg, Table 6, male CD1 mice
[4] = mouse, Table 6, IV 0.5 mg/kg, male CD1 mice
[5] = mouse, Table 6, IV 0.5 mg/kg, male CD1 mice, read-out: AUC (ng*h/ml) IV
[6] = mouse, Table 6, IV 0.5 mg/kg, male CD1 mice, read-out: T1/2 (h) IV (converted)
[7] = mouse, Table 6, IV 0.5 mg/kg, male CD1 mice, read-out: V SS (L/kg) IV
[8] = mouse, Table 6, PO 0.5 mg/kg, male CD1 mice
[9] = mouse, Table 6, PO 0.5 mg/kg, male CD1 mice, read-out: AUC (ng*h/ml) PO
[10] = mouse, Table 6, PO 0.5 mg/kg, male CD1 mice, read-out: T1/2 (h) PO (converted)
[11] = Table 6, PO 0.5 mg/kg, male CD1 mice
[12] = male, CD1, mouse, 0.5 mg/kg, Table S6, IV, mice
[13] = male, CD1, mouse, 0.5 mg/kg, Table S6, PO, mice

T1 sequence (P25779 123-337 limits assumed): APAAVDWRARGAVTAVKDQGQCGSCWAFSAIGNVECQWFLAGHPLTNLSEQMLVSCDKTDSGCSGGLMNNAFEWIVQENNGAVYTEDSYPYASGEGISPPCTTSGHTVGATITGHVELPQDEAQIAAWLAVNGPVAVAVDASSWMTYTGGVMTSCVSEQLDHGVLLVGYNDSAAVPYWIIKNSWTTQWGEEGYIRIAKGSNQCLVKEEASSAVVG

Structure (SMILES)	CLpu [1, 2] [mL/min/kg]	bioavailability [1, 3] [%]	C0 [1, 4] [ng/mL]	AUC [1, 5] [ng·h/mL]	half-life [1, 6] [h]	Vd [1, 7] [L/kg]	clearance [1, 4] [L/h/kg]	Cmax [1, 8] [ng/mL]	Tmax [1, 8] [min]	AUC [1, 9] [ng·h/mL]	further results
Cn1c(CCNC(=O)COc2ccccc2)nc2ccccc21 [Compound 25]	–	–	–	–	–	–	–	–	–	–	IC50 (cruzain): 8.6 ± 1.7 µM; inhibition at 100 µM (cruzain): 87%; Mechanism of cruzain inhibition (Lineweaver-Burk plots) (cruzain; eight substrate and four inhibitor concentrations): competitive
O=C(COc1ccc2c(C(=O)O)cccc2c1)NCCc1nc2ccccc2[nH]1 [Compound 15]	–	–	–	–	–	–	–	–	–	–	IC50 (cruzain): > 100 µM; inhibition at 100 µM (cruzain): 58%
O=C(COc1ccccc1)NCCc1nc2ccccc2n1-c1ccccc1 [Compound 30]	–	–	–	–	–	–	–	–	–	–	IC50 (cruzain): 8.6 ± 2.6 µM; inhibition at 100 µM (cruzain): 79%
O=C(CCc1ccccc1Br)NCCc1nc2ccccc2[nH]1 [Compound 36]	3858	0	144	55	0.5	7.2	9.5	–	–	–	–
O=C(COc1ccc2ccccc2c1)NCCc1nc2ccccc2[nH]1 [Compound 35]	5577	2	228	86	0.2	2	5.8	3.7	18	1.7	half-life [1, 10]: 0.2 h
Cc1ccccc1OCC(=O)NCCc1nc2ccccc2[nH]1 [Compound 17]	1738	0	153	83	0.5	4.4	6.3	–	–	–	–
C=CCCn1c(CCNC(=O)COc2ccccc2Cl)nc2ccccc21 [Compound 38]	7175	–	126	82	0.4	3.3	6.2	2.5	18	–	–
N#Cc1ccccc1OCC(=O)NCCc1nc2ccccc2[nH]1 [Compound 31]	498	–	232	67	0.2	1.9	4.6	12.8	18	–	–
Cc1ccccc1OCC(=O)NCCc1nc2ccccc2o1 [Compound 37]	3118	–	169	53	0.2	2.4	9.5	14.6	18	–	–
O=C(COc1ccccc1[N+](=O)[O-])NCCc1nc2ccccc2[nH]1 [Compound 32]	2623	1.9	220	53	0.2	2.5	5.9	–	18	1	–
O=C(COc1ccccc1Br)NCCc1nc2ccccc2[nH]1 [Compound 18]	1728	1.2	283	84	0.2	1.8	3.2	–	18	1	–
O=C(COc1ccc2ccccc2c1Br)NCCc1nc2ccccc2[nH]1 [Compound 34]	–	5.6	255	116	0.3	1.9	7.6	7.6	18	6.5	CLpu (L/h/kg) [1, 2]: 2,874.7 L/h/kg; half-life [1, 10]: 0.6 h
O=C(COc1ccc(Br)cc1)NCCc1nc2ccccc2[nH]1 [Compound 33]	1010	35.2	658	160	0.2	0.6	9.5	71.7	18	56.5	half-life [1, 10]: 0.4 h
O=C(Cn1ccnc1[N+](=O)[O-])NCc1ccccc1 [BZ, benznidazole, reference compound]	16.7	–	–	–	–	–	–	–	–	–	AUC (ng*h/ml) PO [1, 11]: 1.040 ng·h/mL; T1/2 (h) PO [1, 11]: 1.5 h; CLpu ([1]; Table S6, plasma clearance corrected for the fraction unbound): 16.7 mL/min/kg; clearance [1, 12]: 1 L/h/kg; C0 [1, 12]: 961 ng/mL; AUC ([1]; male, CD1, mouse, 0.5 mg/kg, Table S6, IV, mice, read-out: AUC (ng*h/mL) IV): 1020 ng·h/mL; half-life ([1]; male, CD1, mouse, 0.5 mg/kg, Table S6, IV, mice, read-out: T1/2(h) IV (converted)): 0.8 h; Vd ([1]; male, CD1, mouse, 0.5 mg/kg, Table S6, IV, mice, read-out: VSS (L/kg) IV): 1.1 L/kg; Cmax [1, 13]: 404 ng/mL; Tmax [1, 13]: 24 min; AUC ([1]; male, CD1, mouse, 0.5 mg/kg, Table S6, PO, mice, read-out: AUC (ng*h/mL) PO): 1040 ng·h/mL; half-life ([1]; male, CD1, mouse, 0.5 mg/kg, Table S6, PO, mice, read-out: T1/2 (h) PO (converted)): 1.5 h; bioavailability ([1]; male, CD1, mouse, 0.5 mg/kg, Table S6, mice): 90%
